Source: ChEMBL document CHEMBL5053514, “Synthesis and Anti-Influenza Virus Effects of Novel Substituted Polycyclic Pyridone Derivatives Modified from Baloxavir” (J Med Chem, 2021)

Columns and labels:
[1] = test system: Influenza A virus; test: Antiviral activity against Influenza A virus (A/Fort Monmouth/1/1947(H1N1)) infected in dog MDCK cells assessed as inhibition of virus-induced cytopathogenicity incubated for 48 hrs; format: functional, organism-based
[2] = Antiviral activity against Influenza A virus (A/WUHAN/359/1995(H3N2)) infected in dog MDCK cells assessed as inhibition of virus-induced cytopathogenicity incubated for 48 hrs; format: functional, cell-based
[3] = Selectivity index, ratio of TC50 for MDCK cells to IC50 for antiviral activity against Influenza A virus (A/Fort Monmouth/1/1947(H1N1)) infected in MDCK cells; format: toxicity, cell-based; details: dog, read-out: Selectivity Index
[4] = Selectivity index, ratio of TC50 for MDCK cells to IC50 for antiviral activity against Influenza A virus (A/WUHAN/359/1995(H3N2)) infected in MDCK cells; format: toxicity, cell-based; details: dog, read-out: Selectivity Index
[5] = Cytotoxicity against MDCK cells assessed as reduction in cell viability measured after 48 hrs by CCK8 assay; format: cell-based, Canis lupus familiaris; details: dog, read-out: TC50
[6] = test system: MDCK; test: Cytotoxicity against MDCK cells assessed as reduction in cell viability at 20 uM measured after 48 hrs by CCK8 assay; format: cell-based, Canis lupus familiaris; details: dog
[7] = test system: Influenza A virus; test: Antiviral activity against Influenza A virus (A/Fort Monmouth/1/1947(H1N1)) infected in dog MDCK cells assessed as downregulation of M2 mRNA level measured after 2 hrs by qRT-PCR; format: functional, organism-based
[8] = test system: Influenza A virus; test: Antiviral activity against Influenza A virus (A/Fort Monmouth/1/1947(H1N1)) infected in dog MDCK cells assessed as inhibition of M2 RNA level at 3 nM measured after 2 hrs by qRT-PCR relative to control; format: functional
[9] = test system: Influenza A virus; test: Antiviral activity against Influenza A virus (A/Fort Monmouth/1/1947(H1N1)) infected in dog MDCK cells assessed as inhibition of M2 protein measured after 18 hrs by immunofluorescence microscopic analysis; format: functional, organism-based
[10] = test system: HEK293T; test: Inhibition of Influenza A virus RdRP transfected in HEK293T cells co-transfected with NP/PA/PB1/PB2/pRL-SV40 incubated for 24 hrs by DualGlo-luciferase assay; format: cell-based
[11] = test system: HEK293T; test: Inhibition of Influenza A virus RdRP transfected in HEK293T cells co-transfected with NP/PA/PB1/PB2/pRL-SV40 at 1 nM incubated for 24 hrs by minireplicon based dual luciferase assay relative to control; format: cell-based
[12] = Half life in human liver microsomes in presence of NADPH generating system by LC-MS/MS analysis; format: ADME, Microsome
[13] = Clearance in human liver microsomes in presence of NADPH generating system by LC-MS/MS analysis; format: ADME, Microsome
[14] = Half life in rat liver microsomes in presence of NADPH generating system by LC-MS/MS analysis; format: ADME, Microsome
[15] = Clearance in rat liver microsomes in presence of NADPH generating system by LC-MS/MS analysis; format: ADME, Microsome
[16] = Half life in mouse liver microsomes in presence of NADPH generating system by LC-MS/MS analysis; format: ADME, Microsome
[17] = Clearance in mouse liver microsomes in presence of NADPH generating system by LC-MS/MS analysis; format: ADME, Microsome
[18] = Half life in Sprague-Dawley rat at 5 mg/kg, po measured after 24 hrs by LC-MS/MS analysis; format: ADME, organism-based; details: in vivo
[19] = Tmax in Sprague-Dawley rat at 5 mg/kg, po measured after 24 hrs by LC-MS/MS analysis; format: ADME, organism-based; details: in vivo
[20] = Cmax in Sprague-Dawley rat at 5 mg/kg, po measured after 24 hrs by LC-MS/MS analysis; format: ADME, organism-based; set-up: dose 5 mg/kg, time 24 hrs, route po; details: in vivo
[21] = AUC (0 to t) in Sprague-Dawley rat at 5 mg/kg, po measured after 24 hrs by LC-MS/MS analysis; format: ADME, organism-based; set-up: time 24 hrs, dose 5 mg/kg, route po; details: in vivo
[22] = AUC (0 to infinity) in Sprague-Dawley rat at 5 mg/kg, po measured after 24 hrs by LC-MS/MS analysis; format: ADME, organism-based; set-up: time 24 hrs, dose 5 mg/kg, route po; details: in vivo
[23] = Oral bioavailability Sprague-Dawley rat at 5 mg/kg measured after 24 hrs by LC-MS/MS analysis; format: ADME, organism-based; details: in vivo

| Structure (SMILES) | IC50 [1] | IC50 [2] | selectivity ratio [3] | selectivity ratio [4] | CC50 at 48 h [5] | Activity [6] | Activity [7] | also measured |
| --- | --- | --- | --- | --- | --- | --- | --- | --- |
| O=C1c2c(O)c(=O)ccn2N(C2c3ccccc3C=Cc3ccc(Cl)cc32)[C@@H]2COCCN12 (mixture of isomers) | 14.3 nM | 15.2 nM | 1440 | 1330 | 20100 nM |  |  |  |
| Cc1ccc2c(c1)C(N1[C@@H]3COCCN3C(=O)c3c(O)c(=O)ccn31)c1ccccc1C=C2 (mixture of isomers) | 39.3 nM | 111 nM | 1330 | 472 | 52400 nM | Non-Toxic |  |  |
| COc1ccc2c(c1)C(N1[C@@H]3COCCN3C(=O)c3c(O)c(=O)ccn31)c1ccccc1C=C2 (mixture of isomers) | 281 nM | 128 nM | > 711 | > 1560 | > 200000 nM | Non-Toxic |  |  |
| O=C1c2c(O)c(=O)ccn2N(C2c3ccccc3C=Cc3ccccc32)[C@@H]2COCCN12 | 0.42 nM | 0.38 nM | 450000 | 497000 | 189000 nM | Non-Toxic | Dose-dependent effect | inhibition at 0.003 µM [8]: 88.5%; Activity [9]: Dose-dependent effect; inhibition [10]: Dose-dependent effect; inhibition [11]: 50%; half-life [12]: 221 h; CLH [13]: 79.04 µmol/min/g; half-life [14]: 73.8 h; CLH [15]: 14.49 microL/ml/min; half-life [16]: 31.4 h; CLH [17]: 73.9 microL/ml/min; half-life [18]: 1.7 h; Tmax [19]: 0.83 h; Cmax [20]: 88.1 ng/mL; AUC(0-t) at 24 h [21]: 295 ng·h/mL; AUC(0-inf) [22]: 311 ng·h/mL; bioavailability [23]: 22.9% |
| O=C1c2c(O)c(=O)ccn2N(C2c3ccccc3C=Cc3cc(F)ccc32)[C@@H]2COCCN12 (mixture of isomers) | 0.51 nM | 0.82 nM | 117000 | 72600 | 59500 nM | Non-Toxic | Dose-dependent effect |  |
| O=C1c2c(O)c(=O)ccn2N(C2c3ccccc3C=Cc3ccc(Br)cc32)[C@@H]2COCCN12 (mixture of isomers) | 19.4 nM | 26.7 nM | > 10300 | > 7490 | > 200000 nM | Non-Toxic |  |  |
| O=C1c2c(O)c(=O)ccn2N(C2c3ccccc3C=Cc3cc(Br)ccc32)[C@@H]2COCCN12 (mixture of isomers) | 10.6 nM | 15.1 nM | 2050 | 1440 | 21700 nM |  |  |  |
| O=C1c2c(O)c(=O)ccn2N(C2c3ccccc3C=Cc3c(Cl)cccc32)[C@@H]2COCCN12 (mixture of isomers) | 0.59 nM | 0.53 nM | 14500 | 16100 | 8530 nM |  | Dose-dependent effect | inhibition at 0.003 µM [8]: 76.3%; Activity [9]: Dose-dependent effect; inhibition [10]: Dose-dependent effect; inhibition [11]: 53.5% |
| O=C1c2c(O)c(=O)ccn2N(C2c3ccccc3C=Cc3ccc(F)cc32)[C@@H]2COCCN12 (mixture of isomers) | 2.91 nM | 1.77 nM | > 68700 | > 113000 | > 200000 nM | Non-Toxic | Dose-dependent effect |  |
| O=C1c2c(O)c(=O)ccn2N(C2c3ccccc3C=Cc3cc(Cl)ccc32)[C@@H]2COCCN12 (mixture of isomers) | 7.17 nM | 4.69 nM | 2670 | 4090 | 19200 nM |  |  |  |
| O=C1c2c(O)c(=O)ccn2N(C2c3ccccc3C=Cc3c(F)cccc32)[C@@H]2COCCN12 (mixture of isomers) | 0.39 nM | 0.57 nM | 49600 | 34000 | 19400 nM |  | Dose-dependent effect | inhibition at 0.003 µM [8]: 86%; Activity [9]: Dose-dependent effect; inhibition [10]: Dose-dependent effect; inhibition [11]: 48.5% |
